# Measurements: the supplement of paper PMC9663587
# Experiments:
# Doxorubicin = compound: COc1cccc2c1C(=O)c1c(O)c3c(c(O)c1C2=O)C[C@@](O)(C(=O)CO)C[C@@H]3O[C@H]1C[C@H](N)[C@H](O)[C@H](C)O1 [Doxorubicin]
# Ipatasertib/GDC0068 = compound: CC(C)NC[C@@H](C(=O)N1CCN(c2ncnc3c2[C@H](C)C[C@H]3O)CC1)c1ccc(Cl)cc1 [Ipatasertib/GDC0068]
# Luminespib/NVP-AUY922 = compound: CCNC(=O)c1noc(-c2cc(C(C)C)c(O)cc2O)c1-c1ccc(CN2CCOCC2)cc1 [Luminespib/NVP-AUY922]
# BSJ-01-175 = compound: CN(C)C/C=C/C(=O)Nc1ccc(O[C@@H]2CCC[C@@H](Nc3ncc(Cl)c(-c4c[nH]c5ccccc45)n3)C2)cc1 [BSJ-01-175]
# Flavopiridol [1] = compound: T1, CN1CC[C@H](c2c(O)cc(O)c3c(=O)cc(-c4ccccc4Cl)oc23)[C@H](O)C1 [Flavopiridol]
# Paclitaxel = compound: CC(=O)O[C@H]1C(=O)[C@@]2(C)[C@H]([C@H](OC(=O)c3ccccc3)[C@]3(O)C[C@H](OC(=O)[C@H](O)[C@@H](NC(=O)c4ccccc4)c4ccccc4)C(C)=C1C3(C)C)[C@]1(OC(C)=O)CO[C@@H]1C[C@@H]2O [Paclitaxel]
# Taselisib/GDC0032 = compound: Cc1nc(-c2cn3c(n2)-c2ccc(-c4cnn(C(C)(C)C(N)=O)c4)cc2OCC3)n(C(C)C)n1 [Taselisib/GDC0032]
# ABT-737 = compound: CN(C)CC[C@H](CSc1ccccc1)Nc1ccc(S(=O)(=O)NC(=O)c2ccc(N3CCN(Cc4ccccc4-c4ccc(Cl)cc4)CC3)cc2)cc1[N+](=O)[O-] [ABT-737]
# Olaparib/AZD2281 = compound: O=C(c1cc(Cc2n[nH]c(=O)c3ccccc23)ccc1F)N1CCN(C(=O)C2CC2)CC1 [Olaparib/AZD2281]
# [2] = compound: CCc1cnn2c(NCc3ccc[n+]([O-])c3)cc(N3CCCC[C@H]3CCO)nc12; experiment: GR value, 72 h; higher = faster growth (1 = untreated, <0 = killing);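 also: breast cancer and non-malignant breast epithelial lines, nine half-log doses, viable cells counted by Hoechst and LIVE/DEAD dye imaging versus time-zero plates and DMSO controls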
# Flavopiridol [3] = compound: T1, Flavopiridol; experiment: as above
# THZ531 = compound: CN(C)C/C=C/C(=O)Nc1ccc(C(=O)N2CCC[C@@H](Nc3ncc(Cl)c(-c4c[nH]c5ccccc45)n3)C2)cc1 [THZ531]; experiment: as above
# LEE011/Ribociclib = compound: CN(C)C(=O)c1cc2cnc(Nc3ccc(N4CCNCC4)cn3)nc2n1C1CCCC1 [LEE011/Ribociclib]; experiment: as above
# [4] = compound: CCN1CCN(Cc2ccc(Nc3ncc(F)c(-c4cc(F)c5nc(C)n(C(C)C)c5c4)n3)nc2)CC1; experiment: as above
# BSJ-03-123 = compound: CC(=O)c1c(C)c2cnc(Nc3ccc(N4CCN(CCOCCOCCOCCNC(=O)COc5cccc6c5C(=O)N(C5CCC(=O)NC5=O)C6=O)CC4)cn3)nc2n(C2CCCC2)c1=O [BSJ-03-123]; experiment: as above
# YKL-5-124 = compound: C=CC(=O)Nc1ccc(C(=O)Nc2[nH]nc3c2CN(C(=O)N[C@H](CN(C)C)c2ccccc2)C3(C)C)cc1 [YKL-5-124]; experiment: as above
# [5] = compound: CC(=O)c1c(C)c2cnc(Nc3ccc(N4CCNCC4)cn3)nc2n(C2CCCC2)c1=O; experiment: as above
# 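For GR50, 72 h in this document: breast cancer and non-malignant breast epithelial cell lines, Deep Dye Drop or Dye Drop imaging, nine half-log doses, GR normalized to time-zero plates and DMSO-only controls.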
cell line,measurement,setting,value
HCC1569,"GR50, 72 h",Doxorubicin,0.0255 µM
same,"GR50, 72 h",Ipatasertib/GDC0068,0.394 µM
same,"GR50, 72 h",Luminespib/NVP-AUY922,0.0107 µM
same,"GR50, 72 h",BSJ-01-175,0.00923 µM
same,"GR50, 72 h",Flavopiridol [1],0.11 µM
same,"GR50, 72 h",Paclitaxel,0.00208 µM
same,"GR50, 72 h",Taselisib/GDC0032,0.0552 µM
same,"GR50, 72 h",ABT-737,1.07 µM
same,"GR50, 72 h",Olaparib/AZD2281,> 10 µM
same,GR value,[2]; 0.0001 µM,1.03 GR
same,GR value,[2]; 0.0003162 µM,0.932 GR
same,GR value,[2]; 0.001 µM,1.06 GR
same,GR value,[2]; 0.003162 µM,0.984 GR
same,GR value,[2]; 0.01 µM,0.928 GR
same,GR value,[2]; 0.03162 µM,-0.0195 GR
same,GR value,[2]; 0.1 µM,-0.224 GR
same,GR value,[2]; 0.3162 µM,-0.229 GR
same,GR value,[2]; 1 µM,-0.251 GR
same,GR value,Flavopiridol [3]; 0.0001 µM,1.24 GR
same,GR value,Flavopiridol [3]; 0.0003162 µM,1.13 GR
same,GR value,Flavopiridol [3]; 0.001 µM,0.828 GR
same,GR value,Flavopiridol [3]; 0.003162 µM,1.19 GR
same,GR value,Flavopiridol [3]; 0.01 µM,1.02 GR
same,GR value,Flavopiridol [3]; 0.03162 µM,0.846 GR
same,GR value,Flavopiridol [3]; 0.1 µM,0.422 GR
same,GR value,Flavopiridol [3]; 0.3162 µM,0.0517 GR
same,GR value,Flavopiridol [3]; 1 µM,-0.284 GR
same,GR value,THZ531; 0.0001 µM,1.2 GR
same,GR value,THZ531; 0.0003162 µM,1.02 GR
same,GR value,THZ531; 0.001 µM,1.03 GR
same,GR value,THZ531; 0.003162 µM,1.15 GR
same,GR value,THZ531; 0.01 µM,1.09 GR
same,GR value,THZ531; 0.03162 µM,0.907 GR
same,GR value,THZ531; 0.1 µM,-0.21 GR
same,GR value,THZ531; 0.3162 µM,-0.155 GR
same,GR value,THZ531; 1 µM,0.0205 GR
same,GR value,LEE011/Ribociclib; 0.001 µM,1.04 GR
same,GR value,LEE011/Ribociclib; 0.003162 µM,1.1 GR
same,GR value,LEE011/Ribociclib; 0.01 µM,1.07 GR
same,GR value,LEE011/Ribociclib; 0.03162 µM,0.978 GR
same,GR value,LEE011/Ribociclib; 0.1 µM,1.09 GR
same,GR value,LEE011/Ribociclib; 0.3162 µM,0.913 GR
same,GR value,LEE011/Ribociclib; 1 µM,1.26 GR
same,GR value,LEE011/Ribociclib; 3.162 µM,1.32 GR
same,GR value,LEE011/Ribociclib; 10 µM,0.86 GR
same,GR value,[4]; 0.001 µM,0.941 GR
same,GR value,[4]; 0.003162 µM,0.932 GR
same,GR value,[4]; 0.01 µM,0.955 GR
same,GR value,[4]; 0.03162 µM,1.05 GR
same,GR value,[4]; 0.1 µM,0.985 GR
same,GR value,[4]; 0.3162 µM,1.07 GR
same,GR value,[4]; 1 µM,0.822 GR
same,GR value,[4]; 3.162 µM,0.639 GR
same,GR value,[4]; 10 µM,0.0637 GR
same,GR value,BSJ-03-123; 0.001 µM,1.01 GR
same,GR value,BSJ-03-123; 0.003162 µM,0.944 GR
same,GR value,BSJ-03-123; 0.01 µM,1.04 GR
same,GR value,BSJ-03-123; 0.03162 µM,0.922 GR
same,GR value,BSJ-03-123; 0.1 µM,1.08 GR
same,GR value,BSJ-03-123; 0.3162 µM,0.841 GR
same,GR value,BSJ-03-123; 1 µM,0.5 GR
same,GR value,BSJ-03-123; 3.162 µM,0.693 GR
same,GR value,BSJ-03-123; 10 µM,-0.102 GR
same,GR value,YKL-5-124; 0.001 µM,0.373 GR
same,GR value,YKL-5-124; 0.003162 µM,0.541 GR
same,GR value,YKL-5-124; 0.01 µM,0.302 GR
same,GR value,YKL-5-124; 0.03162 µM,0.277 GR
same,GR value,YKL-5-124; 0.1 µM,0.443 GR
same,GR value,YKL-5-124; 0.3162 µM,0.124 GR
same,GR value,YKL-5-124; 1 µM,0.175 GR
same,GR value,YKL-5-124; 3.162 µM,0.0783 GR
same,GR value,YKL-5-124; 10 µM,-0.266 GR
same,GR value,[5]; 0.0003162 µM,0.957 GR
same,GR value,[5]; 0.001 µM,0.991 GR
same,GR value,[5]; 0.003162 µM,1.03 GR
same,GR value,[5]; 0.01 µM,1.05 GR
same,GR value,[5]; 0.03162 µM,0.928 GR
same,GR value,[5]; 0.1 µM,0.938 GR
same,GR value,[5]; 0.3162 µM,1.06 GR
same,GR value,[5]; 1 µM,0.932 GR
same,GR value,[5]; 3.162 µM,1.05 GR
